This is an account of results in PubChem BioAssay AID328 (DTP/NCI, 2004).

The test has as its system BDF1 mice, P388 leukemia ip, median survival T/C. In words: NCI In Vivo Anticancer Drug Screen. Data for tumor model P388 Leukemia (intraperitoneal) in B6D2F1 (BDF1) mice. To be noted: endpoint: median survival time, higher = longer survival. Summed up: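 Survival ratio, drug arm over vehicle arm, in mice with a transplanted tumour.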
Where [1] appears, read: dose: 25.0 mg/kg/injection, schedule: Q01DX009 (ip), vehicle: Klucel (hydroxypropylcellulose) (HPC).
[2] abbreviates: dose: 100.0 mg/kg/injection, schedule: Q01DX009 (ip), vehicle: Klucel (hydroxypropylcellulose) (HPC).
Where [3] appears, read: dose: 100.0 mg/kg/injection, schedule: Q04DX003 (ip), vehicle: Klucel (hydroxypropylcellulose) (HPC).
Setting [4] is: dose: 200.0 mg/kg/injection, schedule: Q04DX003 (ip), vehicle: Klucel (hydroxypropylcellulose) (HPC).
The mark [5] stands for this setting: dose: 400.0 mg/kg/injection, schedule: Q04DX003 (ip), vehicle: Klucel (hydroxypropylcellulose) (HPC).

Several values for one entry are separate records, joined by “and”; a condition that tells them apart may be missing. Equal entries are not always repeated. Inconclusive results and toxic doses are left out.

With `COc1cc2c(c(OC)c1OC)-c1ccc(OC)c(=O)cc1[C@@H](NC(=O)CF)CC2`, the T/C runs as follows: (dose: 0.09 mg/kg/injection, schedule: Q01DX009 (ip), vehicle: saline with Tween-80) 187 % of control; (dose: 0.09 mg/kg/injection, schedule: Q01DX009 (ip), vehicle: saline) 188 % of control; (dose: 0.18 mg/kg/injection, schedule: Q01DX009 (ip), vehicle: saline with Tween-80) 232 % of control; (dose: 0.18 mg/kg/injection, schedule: Q01DX009 (ip), vehicle: saline) 257 % of control; (dose: 0.37 mg/kg/injection, schedule: Q01DX009 (ip), vehicle: saline) 103 % of control; (dose: 46.2 micrograms/kg/injection, schedule: Q01DX009 (ip), vehicle: saline with Tween-80) 158 % of control. In addition, the T/C is 89 % of control (dose: 185.0 micrograms/kg/injection, schedule: Q01DX009 (ip), vehicle: saline with Tween-80) and 247 % of control (dose: 370.0 micrograms/kg/injection, schedule: Q01DX009 (ip), vehicle: saline with Tween-80).

Take `NC(N)=Nc1ccc(OC(=O)c2ccc(N=C(N)N)cc2)cc1`: the T/C is 106 % of control (dose: 1.56 mg/kg/injection, schedule: Q01DX009 (ip), vehicle: water); 94 % of control (dose: 3.12 mg/kg/injection, schedule: Q01DX009 (ip), vehicle: water); 103 % of control (dose: 6.25 mg/kg/injection, schedule: Q01DX009 (ip), vehicle: water); 110 % of control (dose: 12.5 mg/kg/injection, schedule: Q01DX009 (ip), vehicle: water); 103 % of control (dose: 25.0 mg/kg/injection, schedule: Q01DX009 (ip), vehicle: water).

As to `Cc1ccc2c(c1)CC(C)([CH2][Hg][Cl])O2` (stereo not drawn), the T/C is, setting by setting: (dose: 3.0 mg/kg/injection, schedule: Q01DX009 (ip), vehicle: Klucel (hydroxypropylcellulose) (HPC)) 94 % of control; (dose: 3.0 mg/kg/injection, schedule: Q04DX003 (ip), vehicle: Klucel (hydroxypropylcellulose) (HPC)) 103 % of control; (dose: 6.0 mg/kg/injection, schedule: Q01DX009 (ip), vehicle: Klucel (hydroxypropylcellulose) (HPC)) 105 % of control; (dose: 6.0 mg/kg/injection, schedule: Q04DX003 (ip), vehicle: Klucel (hydroxypropylcellulose) (HPC)) 94 % of control; (dose: 12.0 mg/kg/injection, schedule: Q01DX009 (ip), vehicle: Klucel (hydroxypropylcellulose) (HPC)) 119 % of control; (dose: 12.0 mg/kg/injection, schedule: Q04DX003 (ip), vehicle: Klucel (hydroxypropylcellulose) (HPC)) 100 % of control.

`CCN(CC)Cc1nccn1-c1ccc([N+](=O)[O-])cc1C(=O)c1ccccc1Cl`: the T/C (dose: 50.0 mg/kg/injection, schedule: Q01DX009 (ip), vehicle: saline) is 100 % of control and the T/C (dose: 100.0 mg/kg/injection, schedule: Q01DX009 (ip), vehicle: saline) is 118 % of control.

Turning to `Clc1ccc(C#Cc2ccc(Cl)cc2)cc1`, the T/C reads like this: (dose: 6.25 mg/kg/injection, schedule: Q04DX003 (ip), vehicle: saline with Tween-80) 92 % of control; (dose: 12.5 mg/kg/injection, schedule: Q04DX003 (ip), vehicle: saline with Tween-80) 92 % of control; (dose: 25.0 mg/kg/injection, schedule: Q04DX003 (ip), vehicle: saline with Tween-80) 96 % of control.

For the compound `C1OCC2[CH2][Hg][S][Hg][CH2]C1O2`, the T/C (dose: 1.25 mg/kg/injection, schedule: Q01DX010 (ip), vehicle: saline) is 109 % of control; the T/C (dose: 2.5 mg/kg/injection, schedule: Q01DX010 (ip), vehicle: saline) was 104 % of control; the T/C (dose: 5.0 mg/kg/injection, schedule: Q01DX010 (ip), vehicle: saline) is 109 % of control; the T/C (dose: 10.0 mg/kg/injection, schedule: Q01DX010 (ip), vehicle: saline) was 122 % of control.

Consider `COC(=O)C(C(=O)OC)=C1CS(=O)(=O)C1`, for which the T/C by setting is: (dose: 100.0 mg/kg/injection, schedule: Q04DX002 (ip), vehicle: saline with Tween-80) 94 % of control; (dose: 200.0 mg/kg/injection, schedule: Q04DX002 (ip), vehicle: saline with Tween-80) 101 % of control; (dose: 400.0 mg/kg/injection, schedule: Q04DX002 (ip), vehicle: saline with Tween-80) 102 % of control.

For `O=C(NO)c1ccccn1`, the T/C runs as follows: (dose: 130.0 mg/kg/injection, schedule: Q01DX010 (ip), vehicle: water) 109 % of control; (dose: 200.0 mg/kg/injection, schedule: Q01DX010 (ip), vehicle: water) 100 % of control.

For the compound `C=C(C(=O)OC1C/C(C)=C/C(O)C/C(C)=C/C2OC(=O)C(=C)C21)C(C)O` (stereo not drawn), under “dose: 100.0 mg/kg/injection, schedule: Q04DX002 (ip), vehicle: Klucel (hydroxypropylcellulose) (HPC)”, the T/C was 120 % of control.

Take `O=C(c1ccccc1)c1ccccc1C(=O)c1ccccc1`: the T/C reads like this: under setting [1], 95 % of control; (dose: 50.0 mg/kg/injection, schedule: Q01DX009 (ip), vehicle: Klucel (hydroxypropylcellulose) (HPC)) 100 % of control; under setting [2], 89 % of control and 91 % of control; under setting [3], 109 % of control; under setting [4], 104 % of control; under setting [5], 118 % of control.

Consider `NNC(=O)C(O)C(O)C(=O)NN` (stereo not drawn), for which the T/C (dose: 60.0 mg/kg/injection, schedule: Q01DX009 (ip), vehicle: saline) was 96 % of control and the T/C (dose: 120.0 mg/kg/injection, schedule: Q01DX009 (ip), vehicle: saline) was 93 % of control.

For `COc1cccc2c1C(=O)c1c(O)c3c(c(O)c1C2=O)C[C@@](O)(C(C)=O)C[C@@H]3OC1CC(N(Cc2ccccc2)Cc2ccccc2)C(O)C(C)O1` (stereo partly drawn), the T/C is, setting by setting: (dose: 37.5 mg/kg/injection, schedule: Q04DX003 (ip), vehicle: water) 227 % of control; (dose: 150.0 mg/kg/injection, schedule: Q04DX003 (ip), vehicle: water) 100 % of control; (dose: 300.0 mg/kg/injection, schedule: Q04DX003 (ip), vehicle: water) 102 % of control.

Turning to `CCOC(=O)C1(c2ccccc2)CCCN(C)CC1` (stereo not drawn), the T/C (dose: 100.0 mg/kg/injection, schedule: Q04DX003 (ip), vehicle: saline) was 94 % of control.

For `CCCCCCCCCCCCCCC(F)C(=O)O` (stereo not drawn), the T/C is, setting by setting: (dose: 6.25 mg/kg/injection, schedule: Q01DX009 (ip), vehicle: Klucel (hydroxypropylcellulose) (HPC)) 100 % of control; (dose: 12.5 mg/kg/injection, schedule: Q01DX009 (ip), vehicle: Klucel (hydroxypropylcellulose) (HPC)) 91 % of control; under setting [1], 91 % of control and 95 % of control; under setting [3], 95 % of control.

`O=C(O)c1ccc(C(=O)c2ccccc2C(=O)O)cc1`: the T/C is 95 % of control (dose: 100.0 mg/kg/injection, schedule: Q01DX001 (ip), vehicle: Klucel (hydroxypropylcellulose) (HPC)); 91 % of control under setting [2]; 104 % of control under setting [3]; 100 % of control (dose: 200.0 mg/kg/injection, schedule: Q01DX001 (ip), vehicle: Klucel (hydroxypropylcellulose) (HPC)); 95 % of control (dose: 200.0 mg/kg/injection, schedule: Q01DX009 (ip), vehicle: Klucel (hydroxypropylcellulose) (HPC)); 104 % of control under setting [4]. For the same compound, the T/C was 95 % of control (dose: 400.0 mg/kg/injection, schedule: Q01DX001 (ip), vehicle: Klucel (hydroxypropylcellulose) (HPC)); 91 % of control (dose: 400.0 mg/kg/injection, schedule: Q01DX009 (ip), vehicle: Klucel (hydroxypropylcellulose) (HPC)); 109 % of control under setting [5].

`O=C(NCCCl)N(CCCl)C(=O)Oc1c(Cl)c(Cl)c(Cl)c(Cl)c1Cl`: the T/C is, setting by setting: (dose: 50.0 mg/kg/injection, schedule: Q01DX005 (ip), vehicle: Klucel (hydroxypropylcellulose) (HPC)) 97 % of control; (dose: 100.0 mg/kg/injection, schedule: Q01DX005 (ip), vehicle: Klucel (hydroxypropylcellulose) (HPC)) 105 % of control; (dose: 200.0 mg/kg/injection, schedule: Q01DX005 (ip), vehicle: Klucel (hydroxypropylcellulose) (HPC)) 91 % of control.

As to `COC(=O)CS(=O)(=O)C(C)(C)C(=O)c1ccccc1`, the T/C is 100 % of control (dose: 75.0 mg/kg/injection, schedule: Q01DX001 (ip), vehicle: other); 120 % of control (dose: 150.0 mg/kg/injection, schedule: Q01DX001 (ip), vehicle: other); 110 % of control (dose: 300.0 mg/kg/injection, schedule: Q01DX001 (ip), vehicle: other).

Take `Cc1ccc(N2C(=O)CSC2=S)cc1`: the T/C is 105 % of control (dose: 50.0 mg/kg/injection, schedule: Q01DX009 (ip), vehicle: saline with Tween-80); 95 % of control (dose: 100.0 mg/kg/injection, schedule: Q01DX009 (ip), vehicle: saline with Tween-80); 95 % of control (dose: 200.0 mg/kg/injection, schedule: Q01DX009 (ip), vehicle: saline with Tween-80).
